Test system: serum sPLA2
Assay: Effect of twice-a-day oral A-002 on serum sPLA2 levels in subjects with stable coronary artery disease (Example 6)
Format: in vivo, human
Details: for sPLA2 level, Baseline, Range / sPLA2 level, Week 2, Mean / sPLA2 level, Week 2, Median / sPLA2 level, Week 2, Range / sPLA2 level, Week 4, Mean / sPLA2 level, Week 4, Median / sPLA2 level, Week 4, Range / sPLA2 Change from baseline at week 2, Mean / sPLA2 Change from baseline at week 2, Median / sPLA2 Change from baseline at week 2, Range / sPLA2 Change from baseline at week 4, Mean / sPLA2 Change from baseline at week 4, Median / sPLA2 Change from baseline at week 4, Range / sPLA2 level, Baseline, Mean / sPLA2 level, Baseline, Median: Total (all doses); for serum sPLA2 levels: A-002 50-500 mg oral twice a day, weeks two and four
Description: The protocol for preparing standard curve, test, and quality control samples for use in the assay disclosed herein is set forth in Example 5. Samples are prepared according to this protocol, then loaded in duplicate onto a plate (Cayman catalog no. 485002 or equivalent) that has been pre-coated with a monoclonal sPLA2 antibody (“capture antibody”) that specifically binds sPLA2. In certain embodiments, the capture antibody may interact with a specific form of sPLA2, such as for example sPLA2 type IIA.
sPLA2 acetylcholinesterase:Fab′ conjugate (AChE:Fab′) (“conjugate”) (Cayman catalog no. 485000 or equivalent) is reconstituted in EIA buffer (Cayman catalog no. 400060 or equivalent). Cayman EIA buffer is 1M phosphate, pH 7.0, 1% BSA, 4M NaCl, 10 mM EDTA, and 0.1% sodium azide. Reconstituted conjugate is added to each well of the plate. The conjugate binds a different sPLA2 epitope than the capture antibody, allowing the capture antibody and the conjugate to form a “sandwich” that is immobilized on the plate. Excess reagents are washed away, and the plate is covered and incubated overnight at 2-8° C.
Prior to development, the wells are washed five to six times with wash buffer (Cayman catalog no. 400062 or equivalent). To develop the plate, Ellman's Reagent (Cayman catalog no. 400050 or equivalent) is reconstituted in water and added to each well according to manufacturer instructions. The reconstituted Ellman's Reagent must be used the same day it is prepared because it is unstable. Ellman's Reagent contains an AChE substrate. Specifically, Ellman's Reagent contains acetylthiocholine and 5,5′-dithio-bis-(2-nitrobenzoic acid). Hydrolysis of acetylthiocholine by acetylcholinesterase produces thiocholine, which reacts with 5,5′-dithio-bis-(2-nitrobenzoic acid) to produce 5-thio-2-nitrobenzoic acid. 5-thio-2-nitrobenzoic acid has a strong absorbance at 412 nm. The intensity of absorbance at this wavelength is directly proportional to the concentration of bound conjugate, which is in turn is directly proportional to the concentration of sPLA2 present (Absorbance a [AChE:Fab′ conjugate] α [sPLA2]). During the development step, the plate is shaken, preferably in the dark. In certain embodiments the development time for the assay is 0.5 to 3 hours, preferably 1 to 1.5 hours. At the end of the development period, the high sPLA2 standards should have greater yellow color development than the zero standards. Absorbance of each well is measured at 400-420 nm using a micro-well plate reader. In certain embodiments, absorbance is measured at about 405 nm.
Absorbance readings for duplicate wells are averaged, and the relative standard deviation and % CV are calculated. Standard curve data are used to generate a four parameter curve, and quality control and test samples are measured against the appropriate standard curve (i.e., the standard curve with the same serum content). In order for a test to be considered valid, variation between duplicate wells should be no more than about 25%, and negative controls (blanks) for each standard curve should have a mean absorbance of less than about 0.3.
The method disclosed herein for measuring sPLA2 levels in serum was utilized to determine the effect of administering certain sPLA2 inhibitors on sPLA2 levels in 84 human subjects. The subjects included 24 subjects with diabetes, 32 subjects with metabolic syndrome, and 75 subjects receiving statin treatment. Subjects were administered the sPLA2 inhibitor A-002, a prodrug form of A-001, twice a day at varying dosages from 50 to 500 mg. The structures of A-002and A-001 are set forth below. At two weeks and four weeks after the first administration, sPLA2 levels were measured and compared to pre-administration baseline levels.
84 subjects with stable coronary artery disease were randomized to receive placebo or A-002 via oral administration twice a day over a four week administration period. […]

[1] = diabetes subgroup of ITT population
[2] = non-diabetes subgroup of ITT population
[3] = statin subgroup of ITT population

## CCc1c(C(=O)C(N)=O)c2c(OCC(=O)OC)cccc2n1Cc1ccccc1 [A-002, [[3-(2-Amino-1,2-dioxoethyl)-2-ethyl-1-(phenylmethyl)-1H-indol-4-yl]oxy]acetic acid methyl ester]
ITT population
  sPLA2 level, Baseline, Range: 0.05 to 8.80 ng/mL
  sPLA2 level, Week 2, Mean: 0.60 ng/mL
  sPLA2 level, Week 2, Median: 0.30 ng/mL
  sPLA2 level, Week 2, Range: 0.05 to 4.40 ng/mL
  sPLA2 level, Week 4, Mean: 0.51 ng/mL
  sPLA2 level, Week 4, Median: 0.35 ng/mL
  sPLA2 level, Week 4, Range: 0.05 to 2.40 ng/mL
[1]
  sPLA2 Change from baseline at week 2, Mean: -2.03 ng/mL
  sPLA2 Change from baseline at week 2, Median: -2.40 ng/mL
  sPLA2 Change from baseline at week 2, Range: −4.80 to +2.85 ng/ml
  sPLA2 Change from baseline at week 4, Mean: -2.31 ng/mL
  sPLA2 Change from baseline at week 4, Median: -1.90 ng/mL
  sPLA2 Change from baseline at week 4, Range: −5.70 to +0.20 ng/ml
  sPLA2 level, Baseline, Mean: 2.91 ng/mL
  sPLA2 level, Baseline, Median: 2.75 ng/mL
  sPLA2 level, Baseline, Range: 0.05 to 6.00 ng/mL
  sPLA2 level, Week 2, Mean: 0.67 ng/mL
  sPLA2 level, Week 2, Median: 0.50 ng/mL
  sPLA2 level, Week 2, Range: 0.05 to 2.90 ng/mL
  sPLA2 level, Week 4, Mean: 0.53 ng/mL
  sPLA2 level, Week 4, Median: 0.50 ng/mL
  sPLA2 level, Week 4, Range: 0.05 to 1.50 ng/mL
[2]
  sPLA2 Change from baseline at week 2, Mean: -2.48 ng/mL
  sPLA2 Change from baseline at week 2, Median: -2.40 ng/mL
  sPLA2 Change from baseline at week 2, Range: -5.30 to -0.40 ng/mL
  sPLA2 Change from baseline at week 4, Mean: -2.63 ng/mL
  sPLA2 Change from baseline at week 4, Median: -2.45 ng/mL
  sPLA2 Change from baseline at week 4, Range: -6.40 to -0.55 ng/mL
  sPLA2 level, Baseline, Mean: 3.02 ng/mL
  sPLA2 level, Baseline, Median: 2.60 ng/mL
  sPLA2 level, Baseline, Range: 0.60 to 8.80 ng/mL
  sPLA2 level, Week 2, Mean: 0.57 ng/mL
  sPLA2 level, Week 2, Median: 0.30 ng/mL
  sPLA2 level, Week 2, Range: 0.05 to 4.40 ng/mL
  sPLA2 level, Week 4, Mean: 0.51 ng/mL
  sPLA2 level, Week 4, Median: 0.30 ng/mL
  sPLA2 level, Week 4, Range: 0.05 to 2.40 ng/mL
[3]
  sPLA2 Change from baseline at week 2, Mean: -2.37 ng/mL
  sPLA2 Change from baseline at week 2, Median: -2.43 ng/mL
  sPLA2 Change from baseline at week 2, Range: −5.30 to +2.85 ng/ml
  sPLA2 Change from baseline at week 4, Mean: -2.53 ng/mL
  sPLA2 Change from baseline at week 4, Median: -2.43 ng/mL
  sPLA2 Change from baseline at week 4, Range: −6.40 to +0.20 ng/ml
  sPLA2 level, Baseline, Mean: 3.00 ng/mL
  sPLA2 level, Baseline, Median: 2.70 ng/mL
  sPLA2 level, Baseline, Range: 0.05 to 8.80 ng/mL
  sPLA2 level, Week 2, Mean: 0.60 ng/mL
  sPLA2 level, Week 2, Median: 0.30 ng/mL
  sPLA2 level, Week 2, Range: 0.05 to 4.40 ng/mL
  sPLA2 level, Week 4, Mean: 0.50 ng/mL
  sPLA2 level, Week 4, Median: 0.30 ng/mL
  sPLA2 level, Week 4, Range: 0.05 to 2.40 ng/mL
All subject subpopulations (diabetic/non-diabetic, metabolic syndrome/non-metabolic syndrome, statin/non-statin), all dosages 50 to 500 mg twice a day, two and four weeks
  sPLA2 levels compared to pre-administration baseline: substantial decrease in sPLA2 levels
Diabetic and non-diabetic subpopulations
  serum sPLA2 levels: decrease was observed
Metabolic syndrome subpopulation
  serum sPLA2 levels: decrease was observed
Statin and non-statin subpopulations
  serum sPLA2 levels: decrease was observed

From patent US20090062369A1, “USE OF SECRETORY PHOSPHOLIPASE A2 (SPLA2) INHIBITORS TO DECREASE SPLA2 LEVELS” (priority 2007, published 2009)
